Measured values taken from patent US4791139A, “Diphenyl ether derivatives and their use as insecticides” (Imperial Chemical Industries PLC, priority 1986, dated 1988).

How the values were obtained:
Type in all cases: in vivo
[1] = test system: Blattella germanica (cockroach nymphs); experiment: Residual test, cockroach nymphs (BG), Plastic pot; details: 72 h, 500 ppm, 3 days, read-out: BG grading of mortality
Outline: (§1)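 Product dissolved in acetone, then diluted with water holding 0.1% by weight wetting agent to give 100 to 500 ppm preparations. Pests were held on a host plant or foodstuff, and pests and/or medium were treated. Mortality was assessed one to seven days after treatment.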

[2] = test system: Diabrotica balteata (rootworm larvae); experiment: Residual test, rootworm larvae (DB), Filter paper/maize seed; details: 72 h, 500 ppm, 3 days, read-out: DB grading of mortality
Outline: as §1

[3] = test system: Chilo partellus (Maize stemborer - larvae); experiment: Residual test, Maize stemborer - larvae (CP), Oilseed rape; details: 72 h, 500 ppm, 3 days, read-out: CP grading of mortality
[4] = test system: Nilaparvata lugens (brown plant hopper - nymphs); experiment: Contact test, brown plant hopper - nymphs (NL), Rice plant; details: 72 h, 500 ppm, 3 days, read-out: NL grading of mortality
Outline: as §1

Myzus persicae (aphids) = experiment: Contact test, aphids (MP), Chinese Cabbage leaf; details: 72 h, 500 ppm, 3 days, read-out: MP grading of mortality
Outline: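 Aphids on a host plant and/or the plant itself were treated with 100–500 ppm of product, applied from acetone diluted in water containing 0.1% SYNPERONIC NX wetting agent. Mortality was scored usually one to seven days after treatment.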

[5] = test system: Musca domestica (houseflies - adults); experiment: Knockdown test, houseflies - adults (MD/KD), Cotton wool/sugar; details: 500 ppm, 4 hours, read-out: MD/KD grading of knockdown
Outline: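 Product was dissolved in acetone and diluted with water containing 0.1% wetting agent to 100–500 ppm. The flies and/or their food medium were treated with the preparation. Mortality was scored 1–7 days after treatment, with an additional knockdown assessment for houseflies.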

carp = experiment: Mortality to carp; details: after 48 hours at 10 parts per million
Description: The compounds according to formula I and compositions comprising them have shown themselves to be particularly useful in controlling pests of maize and rice such as Chilo (stem borers), Nilaparvata and Nephotettix (plant hoppers) as well as lepidopteran pests of cotton, for example Heliothis spp. This activity is combined with a low level of hazard to aquatic organisms, eg. fish, which renders the compounds particularly suitable for use in aquatic environments, such as for the control of insect pests of paddy rice and for the control of larvae of insect vectors of disease, for example mosquitos. Thus, for example, compound 2 in Table I caused no mortality to carp after 48 hours at a concentration of 10 parts per million. […] (spider mites).

[6] = test system: Meloidogyne incognita (Tomato root knot eelworm - larvae); experiment: Residual test, Tomato root knot eelworm - larvae (MI), Semi in-vitro; details: 168 h, rate column 500 ppm, application rate is half that recorded, 7 days, read-out: MI grading of mortality
[7] = test system: Heliothis virescens (tobacco budworm - larvae); experiment: Residual test, tobacco budworm - larvae (HV), Cotton leaf; details: 72 h, read-out: HV grading of mortality
Outline: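 Products applied as acetone solutions diluted in water with 0.1% wetting agent, at 100–500 ppm; pests on host plant or food, with pests and/or medium treated. Mortality or knockdown scored 1–7 days after treatment and graded A (80–100%), B (50–79%) or C (<50%).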

[8] = test system: Musca domestica (houseflies - adults); experiment: Contact test, houseflies - adults (MD), Cotton wool/sugar; details: 24 h, 500 ppm, 1 day, read-out: MD grading of mortality
Outline: as §1

CCOc1ccc(C(CCCc2cccc(Oc3ccccc3)c2)C(F)(F)F)cc1 (racemic) [Compound 2, 2-(4-ethoxyphenyl)-5-(3-phenoxyphenyl)-1,1,1-trifluoropentane]
mortality at 500 ppm [1]: 80 to 100%
mortality at 500 ppm [2]: 80 to 100%
mortality at 500 ppm [3]: 80 to 100%
mortality at 500 ppm [4]: 80 to 100%
mortality at 500 ppm (Myzus persicae (aphids)): 80 to 100%
pest or weed control at 500 ppm [5]: 80 to 100%
mortality to carp (carp): no mortality
mortality at 250 µg/mL [6]: < 50%
mortality at 500 ppm [7]: 80 to 100%
mortality at 500 ppm [8]: 80 to 100%
